# Test results from patent US10301267B2, “Compounds” (AstraZeneca AB, priority 2006, dated 2019).
# Structures can show the parent of a compound that is named as a salt.
# Target: FGFR1 active kinase (Homo sapiens, UniProt P11362)
# Assay: FGFR Kinase assay - Caliper; further: 408 µM ATP
# Format: biochemical
# Settings: FGFR1 […], 408 uM ATP; mean of n as printed; read-out: FGFR Kinase assay - Caliper, IC50
# Description: FGFR Kinase Assay—Caliper
# To determine inhibition of FGFR activity, kinase assays were conducted using Caliper technology.
# Kinase activity assays were performed in Greiner 384-well low volume plates, with a total reaction volume of 12 ul per well. Final concentration of FGFR1 active kinase in each reaction well was 7.2 nM. The substrate for each assay was a custom peptide with fluorescent tag (13 amino acids in length, […] with the fluorescene tag on the first K).
# Compounds were serially diluted in 5% (v/v) DMSO, before being added to assay plates. The Enzyme (at 7.2 nM [final]) and Substrate (at 3.6 uM [final]) were added separately to the compound plates, in reaction buffer [comprising: 50 mM MOPS (Sigma, Catalogue No. M1254)—pH 6.5, 0.004% Triton (Sigma, Catalogue No. X-100), 2.4 mM DTT, 12 mM MgCl2, 408 uM ATP] resulting in a final DMSO concentration in the reaction mix of 0.8%.
# Assay plates were incubated at room temperature for 1.5 h, before the reaction was stopped with the addition of buffer [comprising: 100 mM HEPES—pH7.5, 0.033% Brij-35 (Sigma Catalogue No. B4184), 0.22% Caliper Coating Reagent #3 (Caliper Life Sciences Catalogue No. 760050), 88 mM EDTA, 5% DMSO]. Stopped assay plates were then read using the Caliper LabChip® LC3000 (which uses microfludics to measure a shift in mobility between fluorescent labelled peptide and the FGFR1 kinase—phosphorylated form of this peptide).
# In the assay, compounds were tested at a range of concentrations.
# Percentage inhibition at 1 uM, as expressed herein, is a calculated value based on the curve fit that was generated experimentally. From the fitted curve plot, the effect of compound at a concentration of 1 uM was calculated as a percentage inhibition. The IC50 is the concentration of compound, which inhibits FGFR1 kinase activity by 50% in the context of this assay.
# Chain of FGFR1 active kinase (P11362 22-822): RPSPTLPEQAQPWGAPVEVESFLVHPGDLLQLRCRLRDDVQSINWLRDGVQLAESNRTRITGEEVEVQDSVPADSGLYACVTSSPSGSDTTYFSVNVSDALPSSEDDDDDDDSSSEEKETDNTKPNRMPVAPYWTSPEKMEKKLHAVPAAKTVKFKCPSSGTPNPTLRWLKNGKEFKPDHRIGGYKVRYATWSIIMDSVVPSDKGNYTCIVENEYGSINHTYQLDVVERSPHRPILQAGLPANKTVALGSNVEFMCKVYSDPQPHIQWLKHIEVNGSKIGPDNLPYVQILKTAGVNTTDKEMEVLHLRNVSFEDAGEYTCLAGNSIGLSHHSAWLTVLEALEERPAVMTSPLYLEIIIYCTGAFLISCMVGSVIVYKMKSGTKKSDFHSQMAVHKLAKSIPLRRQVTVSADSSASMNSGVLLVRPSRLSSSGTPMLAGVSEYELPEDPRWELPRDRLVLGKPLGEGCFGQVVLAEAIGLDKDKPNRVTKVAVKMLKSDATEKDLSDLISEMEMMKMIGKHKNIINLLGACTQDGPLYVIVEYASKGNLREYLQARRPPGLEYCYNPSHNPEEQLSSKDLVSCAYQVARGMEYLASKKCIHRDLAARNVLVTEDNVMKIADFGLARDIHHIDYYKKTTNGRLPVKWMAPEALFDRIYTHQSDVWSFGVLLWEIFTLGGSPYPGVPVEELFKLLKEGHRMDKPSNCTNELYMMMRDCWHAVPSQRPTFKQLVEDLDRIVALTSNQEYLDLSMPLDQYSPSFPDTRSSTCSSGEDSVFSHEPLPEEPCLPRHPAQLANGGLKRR
row,IC50,Structure (SMILES)
1,231000 nM,"COc1cccc(CCc2cc(NC(=O)c3ccc(NC(=O)c4ccccc4)cc3)[nH]n2)c1 [Example 21, 4-Benzamido-N-[5-[2-(3-methoxyphenyl)ethyl]-2H-pyrazol-3-yl]benzamide]"
2,28600 nM,"COc1cccc(CCc2cc(NC(=O)c3ccc(C#N)cc3)[nH]n2)c1 [Example 23, 4-Cyano-N-[5-[2-(3-methoxyphenyl)ethyl]-2H-pyrazol-3-yl]benzamide]"
3,940 nM,"COc1cccc(CCc2cc(NC(=O)c3ccc(-n4cccn4)cc3)[nH]n2)c1 [Example 25, N-[5-[2-(3-Methoxyphenyl)ethyl]-2H-pyrazol-3-yl]-4-pyrazol-1-yl-benzamide]"
4,64000 nM,"COc1cccc(CCc2cc(NC(=O)c3ccc(Nc4ccccc4)nc3)[nH]n2)c1 [Example 26, 6-Anilino-N-[5-[2-(3-methoxyphenyl)ethyl]-2H-pyrazol-3-yl]pyridine-3-carboxamide]"
5,260 nM,"COc1cccc(CCc2cc(NC(=O)c3ccc(NS(C)(=O)=O)cc3)[nH]n2)c1 [Example 27, 4-Methanesulfonamido-N-[5-[2-(3-methoxyphenyl)ethyl]-2H-pyrazol-3-yl]benzamide]"
6,74 nM,"COc1cccc(CCc2cc(NC(=O)c3ccc(CO)cc3)[nH]n2)c1 [Example 28, 4-(Hydroxymethyl)-N-[5-[2-(3-methoxyphenyl)ethyl]-2H-pyrazol-3-yl]benzamide]"
7,870 nM,"COc1cccc(CCc2cc(NC(=O)c3ccc(NC=O)cn3)[nH]n2)c1 [Example 29, 5-Formamido-N-[5-[2-(3-methoxyphenyl)ethyl]-2H-pyrazol-3-yl]pyridine-2-carboxamide]"
8,800 nM,"COc1cccc(CCc2cc(NC(=O)c3ccc(S(=O)(=O)N(C)C)cc3)[nH]n2)c1 [Example 30, 4-(Dimethylsulfamoyl)-N-[5-[2-(3-methoxyphenyl)ethyl]-2H-pyrazol-3-yl]benzamide]"
9,1050 nM,"COc1cccc(CCc2cc(NC(=O)c3ccc(O)nc3)[nH]n2)c1 [Example 31, 6-Hydroxy-N-[5-[2-(3-methoxyphenyl)ethyl]-2H-pyrazol-3-yl]pyridine-3-carboxamide]"
10,27 nM,"COc1cccc(CCc2cc(NC(=O)c3ccc(N4CCOCC4)nc3)[nH]n2)c1 [Example 32, N-[5-[2-(3-Methoxyphenyl)ethyl]-2H-pyrazol-3-yl]-6-morpholin-4-yl-pyridine-3-carboxamide]"
11,1200 nM,"COc1cccc(CCc2cc(NC(=O)c3ccc(-c4cnco4)cc3)[nH]n2)c1 [Example 33, N-[5-[2-(3-Methoxyphenyl)ethyl]-2H-pyrazol-3-yl]-4-(1,3-oxazol-5-yl)benzamide]"
12,1000 nM,"COc1cccc(CCc2cc(NC(=O)c3ccc(-n4cnnn4)cc3)[nH]n2)c1 [Example 34, N-[5-[2-(3-Methoxyphenyl)ethyl]-2H-pyrazol-3-yl]-4-(tetrazol-1-yl)benzamide]"
13,76000 nM,"C=CCOC(=O)Nc1ccc(C(=O)Nc2cc(CCc3cccc(OC)c3)n[nH]2)cn1 [Example 35, Prop-2-enyl N-[5-[[5-[2-(3-methoxyphenyl)ethyl]-2H-pyrazol-3-yl]carbamoyl]pyridin-2-yl]carbamate]"
14,660 nM,"COc1cccc(CCc2cc(NC(=O)c3ccc(-n4cncn4)cc3)[nH]n2)c1 [Example 36, N-[5-[2-(3-Methoxyphenyl)ethyl]-2H-pyrazol-3-yl]-4-(1,2,4-triazol-1-yl)benzamide]"
15,69000 nM,"COc1cccc(CCc2cc(NC(=O)c3ccc(-n4cccn4)nc3)[nH]n2)c1 [Example 37, N-[5-[2-(3-Methoxyphenyl)ethyl]-2H-pyrazol-3-yl]-6-pyrazol-1-yl-pyridine-3-carboxamide]"
16,165 nM,"COc1cc(CCc2cc(NC(=O)c3ccc(F)cc3)[nH]n2)cc(OC)c1 [Example 38, N-[5-[2-(3,5-Dimethoxyphenyl)ethyl]-2H-pyrazol-3-yl]-4-fluoro-benzamide]"
17,370 nM,"COc1cc(CCc2cc(NC(=O)c3cccc(OC)c3)n[nH]2)cc(OC)c1 [Example 39, N-[5-[2-(3,5-Dimethoxyphenyl)ethyl]-1H-pyrazol-3-yl]-3-methoxy-benzamide]"

row,IC50,Structure (SMILES)
1,710 nM,"COc1cc(CCc2cc(NC(=O)c3cccc(N4CCOCC4)c3)n[nH]2)cc(OC)c1 [Example 40, N-[5-[2-(3,5-Dimethoxyphenyl)ethyl]-1H-pyrazol-3-yl]-3-morpholin-4-yl-benzamide]"
2,2610 nM,"COc1cc(CCc2cc(NC(=O)c3ccccc3OC)n[nH]2)cc(OC)c1 [Example 41, N-[5-[2-(3,5-Dimethoxyphenyl)ethyl]-1H-pyrazol-3-yl]-2-methoxy-benzamide]"
3,75 nM,"CCOCCOc1ccc(C(=O)Nc2cc(CCc3cc(OC)cc(OC)c3)[nH]n2)cc1 [Example 42, N-[5-[2-(3,5-Dimethoxyphenyl)ethyl]-1H-pyrazol-3-yl]-4-(2-ethoxyethoxy)benzamide]"
4,438 nM,"COc1cc(CCc2cc(NC(=O)c3ccc(N4CCCCC4)cc3)n[nH]2)cc(OC)c1 [Example 43, N-[5-[2-(3,5-Dimethoxyphenyl)ethyl]-1H-pyrazol-3-yl]-4-(1-piperidyl)benzamide]"
5,25 nM,"COc1cc(CCc2cc(NC(=O)c3ccc(OCC4CCNCC4)cc3)n[nH]2)cc(OC)c1 [Example 44, N-[5-[2-(3,5-Dimethoxyphenyl)ethyl]-1H-pyrazol-3-yl]-4-(4-piperidylmethoxy)benzamide]"
6,26 nM,"COc1cc(CCc2cc(NC(=O)c3ccc(N4CCNCC4)cc3)n[nH]2)cc(OC)c1 [Example 45, N-[5-[2-(3,5-Dimethoxyphenyl)ethyl]-1H-pyrazol-3-yl]-4-piperazin-1-yl-benzamide]"
7,40 nM,"COc1cc(CCc2cc(NC(=O)c3ccc(N4CCNCC4)nc3)n[nH]2)cc(OC)c1 [Example 46, N-[5-[2-(3,5-Dimethoxyphenyl)ethyl]-1H-pyrazol-3-yl]-6-piperazin-1-yl-pyridine-3-carboxamide]"
8,19 nM,"COc1cc(CCc2cc(NC(=O)c3ccc(CN(C)C)cc3)n[nH]2)cc(OC)c1 [Example 47, N-[5-[2-(3,5-Dimethoxyphenyl)ethyl]-1H-pyrazol-3-yl]-4-(dimethylaminomethyl)benzamide]"
9,39 nM,"COc1cc(CCc2cc(NC(=O)c3ccc(OCCO)cc3)n[nH]2)cc(OC)c1 [Example 48, N-[5-[2-(3,5-Dimethoxyphenyl)ethyl]-1H-pyrazol-3-yl]-4-(2-hydroxyethoxy)benzamide]"
10,1 nM,"COc1cc(CCc2cc(NC(=O)c3ccc(CN4CCCC(C)(C)C4)cc3)n[nH]2)cc(OC)c1 [Example 50, N-[5-[2-(3,5-Dimethoxyphenyl)ethyl]-1H-pyrazol-3-yl]-4-[(3,3-dimethyl-1-piperidyl)methyl]benzamide]"
11,81 nM,"COc1cc(CCc2cc(NC(=O)c3ccc(N4CCN(CCO)CC4)cc3)n[nH]2)cc(OC)c1 [Example 51, N-[5-[2-(3,5-Dimethoxyphenyl)ethyl]-1H-pyrazol-3-yl]-4-[4-(2-hydroxyethyl)piperazin-1-yl]benzamide]"
12,486 nM,"COc1cc(CCc2cc(NC(=O)c3ccc(CN4CCc5ccc(C#N)cc5C4)cc3)n[nH]2)cc(OC)c1 [Example 52, 4-[(7-Cyano-3,4-dihydro-1H-isoquinolin-2-yl)methyl]-N-[5-[2-(3,5-dimethoxyphenyl)ethyl]-1H-pyrazol-3-yl]benzamide]"
13,90 nM,"COc1cc(CCc2cc(NC(=O)c3ccc(CN4CCCC(F)C4)cc3)n[nH]2)cc(OC)c1 (centres unmarked) [Example 53, N-[5-[2-(3,5-Dimethoxyphenyl)ethyl]-1H-pyrazol-3-yl]-4-[(3-fluoro-1-piperidyl)methyl]benzamide]"
14,96 nM,"COc1cc(CCc2cc(NC(=O)c3ccc(OCCN4CCOCC4)cc3)n[nH]2)cc(OC)c1 [Example 54, N-[5-[2-(3,5-Dimethoxyphenyl)ethyl]-1H-pyrazol-3-yl]-4-(2-morpholin-4-ylethoxy)benzamide]"
15,120 nM,"COc1cc(CCc2cc(NC(=O)c3ccc(CCN4CCOCC4)cc3)n[nH]2)cc(OC)c1 [Example 56, N-[5-[2-(3,5-Dimethoxyphenyl)ethyl]-1H-pyrazol-3-yl]-4-(2-morpholin-4-ylethyl)benzamide]"
16,1 nM,"COc1cc(CCc2cc(NC(=O)c3ccc(C4CCNCC4)cc3)n[nH]2)cc(OC)c1 [Example 58, N-[5-[2-(3,5-Dimethoxyphenyl)ethyl]-1H-pyrazol-3-yl]-4-(4-piperidyl)benzamide]"
17,134 nM,"COc1cc(CCc2cc(NC(=O)c3ccc(N(C)C)cc3)n[nH]2)cc(OC)c1 [Example 59, N-[5-[2-(3,5-Dimethoxyphenyl)ethyl]-1H-pyrazol-3-yl]-4-dimethylamino-benzamide]"

row,Structure (SMILES),IC50
1,"COc1cc(CCc2cc(NC(=O)c3ccc(N4CCNCC4)s3)n[nH]2)cc(OC)c1 [Example 60, N-[5-[2-(3,5-Dimethoxyphenyl)ethyl]-1H-pyrazol-3-yl]-5-piperazin-1-yl-thiophene-2-carboxamide (2,2,2-trifluoroacetic Acid Salt)]",22 nM
